Experimental data: publication PMC8596843, “Platinum Cyclooctadiene Complexes with Activity against Gram‐positive Bacteria” (Chemmedchem, 2021)

What was measured:
[1] = system: HEK-293 ATCC CRL-1573 human embryonic kidney cells; format: cell-based
Protocol: As part of the CO‐ADD screening, all compounds that show any activity against a microbial strain are evaluated for their cytotoxicity against human embryonic kidney cells (HEK‐293) and for haemolysis against human red blood cells. None of the compounds tested for cytotoxicity (Pt1‐9 and Pd1) caused any significant cell death up to concentrations of 100 μM. […] We have also observed higher IC50 values for the methylated complexes Pt3 and Pt4 against HeLa cells in previous work.[16] […]
(§1) inhibitors as positive control.
(§2) Tamoxifen (Sigma T5648) was used
(§3) as internal control on each plate.
in a Neubauer haemocytometer. […]

[2] = system: human red blood cells; assay: Haemolysis assay; format: cell-based; details: concentration inducing 10 % haemolysis
Protocol: As part of the CO‐ADD screening, all compounds that show any activity against a microbial strain are evaluated for their cytotoxicity against human embryonic kidney cells (HEK‐293) and for haemolysis against human red blood cells. None of the compounds tested for cytotoxicity (Pt1‐9 and Pd1) caused any significant cell death up to concentrations of 100 μM. […] We have also observed higher IC50 values for the methylated complexes Pt3 and Pt4 against HeLa cells in previous work.[16]
The resultant mid-log phase cultures were diluted
Gram-negative and Gram-positive bacteria, respectively.
final concentration range of 0.8 – 100 µM.
as §1, §2, §3
in a Neubauer haemocytometer.
incubated for 1 h at 37 °C, without shaking.
HC10 and HC50 (concentration at which 10%
for top, bottom and slope using Prism 8. […]

SMILES	HEK‐293 CC50 [1]	Haemolysis HC10 [2]
CC/C(=C(\c1ccccc1)c1ccc(OCCN(C)C)cc1)c1ccccc1 [Tamoxifen, reference compound]	34.75–30.55	
CC[C@H](C)[C@H](NC(=O)CN)C(=O)NCC(=O)N[C@@H](C)C(=O)N[C@H](C(=O)N[C@@H](CC(C)C)C(=O)N[C@@H](CCCCN)C(=O)N[C@H](C(=O)N[C@@H](CC(C)C)C(=O)N[C@H](C(=O)N[C@H](C(=O)NCC(=O)N[C@@H](CC(C)C)C(=O)N1CCC[C@H]1C(=O)N[C@@H](C)C(=O)N[C@@H](CC(C)C)C(=O)N[C@H](C(=O)N[C@@H](CO)C(=O)N[C@@H](Cc1c[nH]c2ccccc12)C(=O)N[C@H](C(=O)N[C@@H](CCCCN)C(=O)N[C@@H](CCCNC(=N)N)C(=O)N[C@@H](CCCCN)C(=O)N[C@@H](CCCNC(=N)N)C(=O)N[C@@H](CCC(N)=O)C(=O)N[C@@H](CCC(N)=O)C(N)=O)[C@@H](C)CC)[C@@H](C)CC)[C@@H](C)O)[C@@H](C)O)C(C)C)C(C)C [Melittin, reference compound]		1.15 µM
